Assay results as given in paper PMC3702540, “Sphingosine Kinase Activity Is Not Required for Tumor Cell Viability” (PLoS ONE, 2013).
pIC50: −log10 of the molar value.

How the values were obtained:
mSPHK1 = mSPHK1 (Mus musculus, UniProt Q8CI15); assay: Biochemical SPHK activity, 33P incorporation into S1P; parameters: species or system murine; settings: biochemical assay
Protocol: (§1) A biochemical assay was used to measure the incorporation of ^33P-radiolabeled phosphate from ATP into S1P. Reactions were performed in 96-well polystyrene high-binding microplates (Greiner) in a volume of 60 µl. Reaction mixtures contained 50 mM HEPES (pH 7.5), 3 mM MgCl2, 10 mM NaF, 1 µM ATP, 0.75 µCi of [γ-33P]ATP, 1.11 µM sphingosine (Biomol International) in the presence of either 0.005% Triton X-100 (SPHK1) or 0.0025% NP-40 (SPHK2). Enzymatic reactions were initiated by adding 30 nM of sphingosine kinase in the presence of 2 mM dithiothreitol (DTT). Reactions were terminated after 50 min at 30°C by adding 30 µL 7.5 M Guanidine HCl. Plates were then washed three times with 200 µl PBS before 50 ul of scintillate was added to each well. The assay was quantified by counting in a Packard TopCount (Perkin Elmer).

[1] = system: human melanoma cell line WM266.4; assay: Cellular SPHK activity, C17 S1P levels; settings: WM 266-4, 2 h, read-out: IC50, inhibition of cellular SPHK activity (C17 S1P)
Protocol: (§9) Frozen cell pellets (1×10^6 cells) were thawed and 75 µl of methanol was added. The samples were transferred to an un-skirted 96 well PCR plate after which they were mixed to a homogeneous solution. The plate was then sealed and pulsed for 6 seconds per well (E200-S0%250 mV500 setting) on a Covaris Adaptive Focused Acoustic (AFA) cell disruptor (Covaris, Woburn, MA). 130 µl of Dichloromethane was then added to each well after which plates were incubated at room temperature for 2 hours. Post incubation, 52 µl of ddH2O was added to induce phase separation. […] 45 µl of this final sample was transferred to a 384 well plate and analyzed on a RapidfireTM (Biocius, Wakefield, MA) ultra-high throughput chromatography system interfaced with a TSQ Vantage triple stage quadrupole mass spectrometer (Thermo Scientific, Waltham, MA). […] After an aqueous wash ((80∶20) Methanol/ddH2O containing 75 mM NH4OH and 0.1% formic acid) to remove the S1P extraction components that interfere with mass spectrometry, C17-S1P was eluted ((99∶1) Methanol/ddH2O containing 0.1% formic acid) and analyzed by inline triple stage quadrupole mass spectrometry. […] C17-S1P was monitored using a selective reaction monitoring protocol which detected the loss of a phosphate molecule from the parent ion C17-S1P. […]
(§10) Two hours after addition of C17 sphingosine, cells were lysed and levels of C17 S1P were determined.

[2] = system: human breast cancer cell line MDA-MB-231; assay: Cellular SPHK activity, C17 S1P levels; settings: MDA-MB-231, 2 h, read-out: IC50, inhibition of cellular SPHK activity (C17 S1P)
Protocol: as §9, §10

[3] = system: murine melanoma cell line B16F10; assay: Cellular SPHK activity, C17 S1P levels; settings: Mus musculus, B16-F10, 2 h, read-out: IC50, inhibition of cellular SPHK activity (C17 S1P)
Protocol: as §9, §10

human cell lines = assay: Cellular SPHK activity, C17 S1P levels, summary for human cell lines; assay type: cell-based
UACC257 = assay: 72 h viability assay (CellTiter-Glo); assay type: cell-based; settings: Homo sapiens, UACC-257, UACC257 (Skin), inflection point of titration curve
Protocol: (§2) Cell lines were obtained from ATCC and cultured in Dulbecco’s Modification of Eagle’s Medium (Corning® cellgro 10-013) supplemented with 5% FBS and 1% P/S or in Minimum Essential Medium (Corning® cellgro® 10-010) supplemented with 10% FBS, 0.1 mM MEM Nonessential Amino Acids (Corning® cellgro 25-025), 1.0 mM sodium pyruvate (Corning® cellgro 25-000) and 1% P/S. Cells were seeded at a density of 5000 cells per well in 96-well cell culture plates on day1. Media was changed with or without serum and dosed with compound on Day 2. On day5 the Cell Viability assay was performed with CellTiter-Glo® Reagent (Promega) according to the manufacturers instruction.
(§3) S1P has been reported to be important for tumor cell viability, and reduction of intracellular S1P levels has been associated with greater cellular sensitivity to pro-apoptotic stress, [7]. Compounds A and B were used to test this hypothesis experimentally. A panel of cell lines likely to be sensitive to SPHK inhibition was assembled based on literature reports, internal siRNA data and SPHK expression levels, [9], [21]. Viability was monitored after 72 h of SPHK inhibition under regular culture conditions to assess direct effects on cell viability, and under serum starvation to assess the effects of SPHK inhibition under stress conditions. […] Cell death was only observed at higher concentrations (3 to 30 µM). […] Like all substrate competitive SPHK inhibitors, these compounds have a polar headgroup and a lipophilic tail, and can act as detergents at higher concentrations. […]

Colo 320 = assay: 72 h viability assay (CellTiter-Glo); assay type: cell-based; settings: Homo sapiens, Colo 320 (Colon), inflection point of titration curve
Protocol: as §2, §3

LN229 = assay: 72 h viability assay (CellTiter-Glo); assay type: cell-based; settings: Homo sapiens, LN-229, LN229 (Brain), inflection point of titration curve
Protocol: as §2, §3

LN18 = assay: 72 h viability assay (CellTiter-Glo); assay type: cell-based; settings: Homo sapiens, LN-18, LN18 (Brain), inflection point of titration curve
Protocol: as §2, §3

Saos2 = assay: 72 h viability assay (CellTiter-Glo); assay type: cell-based; settings: Homo sapiens, SAOS-2, Saos2 (Bone), inflection point of titration curve
Protocol: as §2, §3

WM266-4 = assay: 72 h viability assay (CellTiter-Glo); assay type: cell-based; settings: Homo sapiens, WM 266-4, WM266-4 (Skin), inflection point of titration curve
Protocol: as §2, §3

HS294T = assay: 72 h viability assay (CellTiter-Glo); assay type: cell-based; settings: Homo sapiens, Hs 294T, HS294T (Skin), inflection point of titration curve
Protocol: as §2, §3

HA-1 = assay: 72 h viability assay (CellTiter-Glo); assay type: cell-based; settings: read-out: IC50 viability
Protocol: as §2, §3

A375 = assay: 72 h viability assay (CellTiter-Glo); assay type: cell-based; settings: Homo sapiens, A-375, A375 (Skin), inflection point of titration curve
Protocol: as §2, §3

HeLa = assay: 72 h viability assay (CellTiter-Glo); assay type: cell-based; settings: Homo sapiens, HeLa (Cervix), inflection point of titration curve
Protocol: as §2, §3

[4] = system: MDA-MB-231 xenograft tumors; assay: MDA-MB-231 tumor xenograft model; assay type: in vivo; settings: athymic nude mice
Protocol: MDA-MB-231 cells were purchased from the American Type Culture Collection (ATCC) and maintained in DMEM high glucose with 10% fetal bovine serum (FBS) and 1x-L-glutamine. Mice were injected subcutaneously with 5×10^6 cells in 30% Matrigel (BD Biosciences, San Jose, CA). […] Vehicle and compound A were administered by oral gavage daily. Taxotere was administered by intraperitoneal injection once a week. Tumor dimensions were assessed twice weekly with a Pro-Max electronic digital caliper (Sylvac, Crissier, Switzerland) and tumor volume was calculated using the formula: length x width x height and expressed as mm^3. Data are expressed as mean +/− SE (n = 7–10). Repeated-measures analysis of variance (RMANOVA) followed by Dunnett’s post hoc test for multiple comparisons was used to evaluate statistical significance of observed differences. Body weight was recorded twice weekly as an index of toxicity.
Here, athymic nude mice were implanted s.c. with human MDA-MD-231 breast cancer cells. Dosing was initiated 18 days later when the tumors had reached ∼ 200 mm^3.
Female athymic nude mice were injected with 5×10^6 MDA-MB-231 cells on day 0. […] (n = 7–10 per group); bars, SE. *, P<0.0001, compared to vehicle.

plasma levels of S1P = assay: Pharmacodynamic assay, plasma S1P levels in mice; assay type: in vivo
Protocol: (§4) For S1P measurements, plasma was extracted with 0.1% formic acid/methanol containing an internal standard (C17-S1P) and subjected to LC-MS/MS analysis. […] The method provided linear response over a concentration range of 1 to 2000 ng/ml. A separate aliquot of plasma was extracted with acetonitrile containing an internal standard (structural analog) and subjected to reversed-phase liquid chromatographic using a Shiseido UG Capcell C18, 50×2 mm analytical column (Phenomenex). MS/MS analysis was conducted on a API4000 with an electrospray interface using multiple reaction monitoring (MRM) in the positive ionization mode.
(§5) Female athymic nude mice were assigned to one of fifteen treatment groups. […] At various times after dosing (2 to 24 h), mice were sacrificed and plasma collected to determine S1P levels and compound concentrations. Data are mean ± SE (n = 5). […] S1P and drug concentration were determined by LC-MS/MS.
(§6) The inhibition of sphingosine kinase was evaluated in a pharmacodynamic assay. […] At 2, 7 and 24 hours post dose, plasma was collected and levels of S1P and plasma drug concentration were determined.

LN229 cells = assay: 15 day colony formation assay; assay type: cell-based, human; settings: concentrations up to 1 µM
Protocol: LN-229 cells were cultured in Dulbecco’s Modification of Eagle’s Medium (Corning® cellgro 10-013) supplement with 5%FBS and 1% P/S. On Day 1 cells were seeded on 6-well tissue culture plates at density of 800 cells per well. On Day 2 compounds were added and cells were incubated for 15 days at 37°C. Cells were then stained with Crystal violet.
The long term effect of SPHK inhibition on cell viability was studied in the glioblastoma cell line LN229. […] Concentrations of more than 3 µM led to immediate cell death due to cell lysis and prevented the formation of colonies (figure 5).
Figure 5 Effects of SPHK inhibition in colony formation assays. LN229 cells were seeded at a density of 800 cells/well in a six well plate in the presence of the indicated concentrations of SPHK inhibitor. After 15 days, cells were fixed and stained with crystal violet.

LOX = assay: 72 h viability assay (CellTiter-Glo); assay type: cell-based, human; settings: LOX (Skin), inflection point of titration curve
Protocol: as §2
(§7) S1P has been reported to be important for tumor cell viability, and reduction of intracellular S1P levels has been associated with greater cellular sensitivity to pro-apoptotic stress, [7]. […] A panel of cell lines likely to be sensitive to SPHK inhibition was assembled based on literature reports, internal siRNA data and SPHK expression levels, [9], [21]. Viability was monitored after 72 h of SPHK inhibition under regular culture conditions to assess direct effects on cell viability, and under serum starvation to assess the effects of SPHK inhibition under stress conditions.
(§8) The IC50s reflect the inflection point of the titration curve.

[5] = Compound plasma concentration in mice after oral gavage; assay type: in vivo
Protocol: as §4, §5, §6

panel of cell lines = assay: 72 h viability assays, summary for panel of cell lines; assay type: cell-based; settings: regular culture conditions and serum starvation
Protocol: as §2, §7

mSPHK2 = mSPHK2 (Mus musculus, UniProt Q9JIA7); assay: Biochemical SPHK activity, 33P incorporation into S1P; parameters: species or system murine; settings: biochemical assay
Protocol: as §1

hSPHK2 = hSPHK2 (Homo sapiens, UniProt Q9NRA0); assay: as above; settings: biochemical assay
Protocol: as §1

hSPHK1 = hSPHK1 (Homo sapiens, UniProt Q9NYA1); assay: as above; settings: biochemical assay
Protocol: as §1

SPHK1 = system: SPHK1; parameters: method as in PMID 22397330; settings: cited from earlier work
[6] = system: human melanoma cell line LOX; assay: Endogenous S1P levels 24 h after compound treatment; assay type: cell-based; settings: 24 h treatment, read-out: IC50, endogenous S1P production (LOX)
Source text: Several SPHK inhibitors have been reported in the literature, and have been utilized to support the rheostat theory.
as §8

Sequence of mSPHK1 (Q8CI15 whole entry): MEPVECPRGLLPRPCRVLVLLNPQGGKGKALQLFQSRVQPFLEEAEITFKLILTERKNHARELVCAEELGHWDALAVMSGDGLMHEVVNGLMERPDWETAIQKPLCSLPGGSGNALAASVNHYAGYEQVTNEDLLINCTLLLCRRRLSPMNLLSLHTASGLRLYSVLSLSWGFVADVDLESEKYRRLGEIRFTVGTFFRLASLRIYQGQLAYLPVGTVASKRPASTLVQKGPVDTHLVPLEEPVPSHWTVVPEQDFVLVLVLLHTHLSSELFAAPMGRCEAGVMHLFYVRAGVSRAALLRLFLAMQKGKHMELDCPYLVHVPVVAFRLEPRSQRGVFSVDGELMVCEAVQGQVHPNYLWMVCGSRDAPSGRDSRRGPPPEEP
Sequence of hSPHK2 (Q9NRA0 whole entry): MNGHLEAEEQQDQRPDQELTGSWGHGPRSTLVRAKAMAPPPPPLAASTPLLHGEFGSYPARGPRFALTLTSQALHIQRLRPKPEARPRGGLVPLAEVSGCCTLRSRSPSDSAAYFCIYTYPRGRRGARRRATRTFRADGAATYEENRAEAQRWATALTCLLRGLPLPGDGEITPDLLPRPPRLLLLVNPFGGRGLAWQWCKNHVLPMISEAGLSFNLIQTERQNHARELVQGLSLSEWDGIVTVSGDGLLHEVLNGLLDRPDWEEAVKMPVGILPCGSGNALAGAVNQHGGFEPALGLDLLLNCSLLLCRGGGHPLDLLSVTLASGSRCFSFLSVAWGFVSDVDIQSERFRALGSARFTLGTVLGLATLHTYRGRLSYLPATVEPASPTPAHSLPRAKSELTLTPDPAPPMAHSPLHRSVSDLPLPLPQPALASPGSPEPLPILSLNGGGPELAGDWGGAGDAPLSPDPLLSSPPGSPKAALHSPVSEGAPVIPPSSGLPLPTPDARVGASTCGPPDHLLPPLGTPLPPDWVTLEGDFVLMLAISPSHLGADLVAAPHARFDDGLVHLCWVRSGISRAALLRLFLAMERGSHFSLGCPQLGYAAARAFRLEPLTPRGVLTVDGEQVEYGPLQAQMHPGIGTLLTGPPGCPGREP
Sequence of mSPHK2 (Q9JIA7 whole entry): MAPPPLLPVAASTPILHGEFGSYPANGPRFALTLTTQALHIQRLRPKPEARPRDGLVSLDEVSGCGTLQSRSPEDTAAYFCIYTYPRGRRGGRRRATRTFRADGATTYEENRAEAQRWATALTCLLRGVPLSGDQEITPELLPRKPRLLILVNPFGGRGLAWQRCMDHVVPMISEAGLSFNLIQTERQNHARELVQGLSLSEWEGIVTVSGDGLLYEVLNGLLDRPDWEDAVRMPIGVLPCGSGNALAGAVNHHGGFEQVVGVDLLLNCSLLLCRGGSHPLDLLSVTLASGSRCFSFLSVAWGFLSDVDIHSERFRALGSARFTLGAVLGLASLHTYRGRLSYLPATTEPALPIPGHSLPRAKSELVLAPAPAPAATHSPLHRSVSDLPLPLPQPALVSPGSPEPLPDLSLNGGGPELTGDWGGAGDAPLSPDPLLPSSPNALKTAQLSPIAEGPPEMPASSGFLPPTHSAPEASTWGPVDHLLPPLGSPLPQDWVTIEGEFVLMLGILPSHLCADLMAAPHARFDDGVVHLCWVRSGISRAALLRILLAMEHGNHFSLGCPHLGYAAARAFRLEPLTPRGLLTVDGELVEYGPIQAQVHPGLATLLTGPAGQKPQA
Sequence of hSPHK1 (Q9NYA1 whole entry): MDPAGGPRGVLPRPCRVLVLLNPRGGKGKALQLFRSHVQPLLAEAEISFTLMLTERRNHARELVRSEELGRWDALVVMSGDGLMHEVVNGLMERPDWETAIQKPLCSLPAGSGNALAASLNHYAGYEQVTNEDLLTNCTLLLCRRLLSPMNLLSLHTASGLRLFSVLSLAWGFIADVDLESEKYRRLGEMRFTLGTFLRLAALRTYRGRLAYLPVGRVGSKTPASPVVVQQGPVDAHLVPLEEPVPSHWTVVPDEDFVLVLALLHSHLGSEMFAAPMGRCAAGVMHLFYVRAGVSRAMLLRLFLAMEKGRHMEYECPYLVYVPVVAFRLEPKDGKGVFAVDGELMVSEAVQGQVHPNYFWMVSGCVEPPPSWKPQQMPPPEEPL

SMILES: OC[C@H]1C[C@@H](O)CCN1CCc1ccc(Nc2nc(-c3ccc(C(F)(F)F)cc3)cs2)cc1 [Compound A]
- pIC50 (mSPHK1): 7.19
- pIC50 [1]: 7.20
- pIC50 [2]: 7.05
- pIC50 [3]: 6.60
- IC50s, inhibition of SPHK activity in human cell lines (human cell lines): double digit nanomolar range
- pIC50 (UACC257): 5.36
- pIC50 (Colo 320): 5.29
- pIC50 (LN229): 5.32
- pIC50 (LN18): 5.39
- pIC50 (Saos2): 5.15
- pIC50 (WM266-4): 5.22
- pIC50 (HS294T): 5.22
- pIC50 (HA-1): 5.20
- pIC50 (A375): 5.08
- pIC50 (HeLa): 5.19
- effect on tumor growth in vivo ([4]; 300 mg/kg daily by oral gavage from day 18): did not lead to significant inhibition of tumor growth
- mice in which compound was not tolerated (deaths) ([4]; 300 mg/kg daily by oral gavage, cause of death unknown): 3 out of the 10
- reduction of host / plasma S1P levels (plasma levels of S1P; 300 mg/kg oral): more than 70%
- maximum inhibition of plasma levels of S1P (plasma levels of S1P; oral gavage 10-300 mg/kg, at plasma exposure of 0.38 µM): 72%
- viability in 72 h proliferation and 15 day colony formation assays (LN229 cells): viability was unchanged
- pIC50 (LOX; Homo sapiens): 5.40
- oral bioavailability [5]: orally bioavailable
- plasma exposure at maximum inhibition of plasma S1P [5]: 0.38 µM
- effect on viability at 1 µM compound (panel of cell lines): did not result in reduced viability

SMILES: OC[C@H]1C[C@H](O)CN1CCCc1ccc(Nc2nc(-c3cccc(C(F)(F)F)c3)cs2)cc1 [Compound B]
- pIC50 (mSPHK2): < 5.30
- pIC50 (mSPHK1): 7.26
- pIC50 [1]: 7.44
- IC50s, inhibition of SPHK activity in human cell lines (human cell lines): double digit nanomolar range
- pIC50 (UACC257): 5.19
- pIC50 (Colo 320): 5.03
- pIC50 (LN229): 5.06
- pIC50 (LN18): 5.26
- pIC50 (Saos2): 4.87
- pIC50 (WM266-4): 4.88
- pIC50 (HS294T): 5.00
- pIC50 (HA-1): 4.81
- pIC50 (A375): 4.76
- pIC50 (HeLa): 4.84
- pIC50 (hSPHK2): 7.22
- pIC50 (hSPHK1): 8.10
- viability in 72 h proliferation and 15 day colony formation assays (LN229 cells): viability was unchanged
- pIC50 (LOX; Homo sapiens): 5.21
- effect on viability at 1 µM compound (panel of cell lines): did not result in reduced viability

SMILES: CCCCCc1ccc(/C=C/[C@H](O)[C@@H](CO)NC)cc1 [SK1-I]
- biochemical IC50 (SPHK1): in the micromolar range

SMILES: Oc1ccc(Nc2nc(-c3ccc(Cl)cc3)cs2)cc1 [SKII, reference compound]
- pIC50 (mSPHK2): < 5.00
- pIC50 (mSPHK1): < 5.00
- IC50 (mSPHK1) (mSPHK1): too low to be detected
- pIC50 (hSPHK2): 4.89
- pIC50 [6]: 5.12
- pIC50 (LOX): 4.95
